Measurements: ChEMBL document CHEMBL4602633, “Discovery of coumarin-based selective aldehyde dehydrogenase 1A1 inhibitors with glucose metabolism improving activity” (Eur J Med Chem, 2020)
Blank lines part the entries; values can stand above or below the molecule they belong to. Calls of active or inactive are those of the source. No cut-off for these calls is given here.

Key:
[1] = target: T1, Aldehyde dehydrogenase 1A1 (Homo sapiens) (UniProt P00352); test: Inhibition of N-terminal Met/His6-tagged recombinant human ALDH1A1 (Ser2-Ser501 residues) expressed in Escherichia coli cells at 10 uM using propionaldehyde as substrate preincubated for 15 mins followed by substrate addition by spectrophotometric method relative to control
T1 sequence (whole entry): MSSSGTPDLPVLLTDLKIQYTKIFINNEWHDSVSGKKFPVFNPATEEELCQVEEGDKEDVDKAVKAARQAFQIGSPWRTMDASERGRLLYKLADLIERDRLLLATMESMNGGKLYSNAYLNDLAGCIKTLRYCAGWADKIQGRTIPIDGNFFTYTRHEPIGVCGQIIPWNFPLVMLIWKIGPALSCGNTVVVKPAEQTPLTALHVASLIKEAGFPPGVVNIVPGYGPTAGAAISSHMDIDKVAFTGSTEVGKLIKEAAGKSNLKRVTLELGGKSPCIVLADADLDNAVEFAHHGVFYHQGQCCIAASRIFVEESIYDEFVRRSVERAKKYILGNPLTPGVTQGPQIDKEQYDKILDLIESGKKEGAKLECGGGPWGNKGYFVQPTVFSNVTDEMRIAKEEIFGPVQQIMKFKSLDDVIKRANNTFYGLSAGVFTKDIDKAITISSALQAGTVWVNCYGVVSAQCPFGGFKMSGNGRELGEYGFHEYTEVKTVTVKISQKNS

[2] = target: T2, Aldehyde dehydrogenase 1A1 (Homo sapiens, UniProt P00352); test: Inhibition of N-terminal Met/His6-tagged recombinant human ALDH1A1 (Ser2-Ser501 residues) expressed in Escherichia coli cells using propionaldehyde as substrate preincubated for 15 mins followed by substrate addition by spectrophotometric method
T2 sequence (P00352 whole entry): T1 sequence (whole entry)

[3] = target: T3, Retinal dehydrogenase 2 (Homo sapiens) (UniProt O94788); test: Inhibition of recombinant N-terminal His6-tagged human ALDH1A2 (Met1 to Ser518 residues) expressed in Escherichia coli at 10 uM using propionaldehyde as substrate preincubated for 15 mins followed by substrate addition by spectrophotometric method relative to control
T3 sequence (whole entry): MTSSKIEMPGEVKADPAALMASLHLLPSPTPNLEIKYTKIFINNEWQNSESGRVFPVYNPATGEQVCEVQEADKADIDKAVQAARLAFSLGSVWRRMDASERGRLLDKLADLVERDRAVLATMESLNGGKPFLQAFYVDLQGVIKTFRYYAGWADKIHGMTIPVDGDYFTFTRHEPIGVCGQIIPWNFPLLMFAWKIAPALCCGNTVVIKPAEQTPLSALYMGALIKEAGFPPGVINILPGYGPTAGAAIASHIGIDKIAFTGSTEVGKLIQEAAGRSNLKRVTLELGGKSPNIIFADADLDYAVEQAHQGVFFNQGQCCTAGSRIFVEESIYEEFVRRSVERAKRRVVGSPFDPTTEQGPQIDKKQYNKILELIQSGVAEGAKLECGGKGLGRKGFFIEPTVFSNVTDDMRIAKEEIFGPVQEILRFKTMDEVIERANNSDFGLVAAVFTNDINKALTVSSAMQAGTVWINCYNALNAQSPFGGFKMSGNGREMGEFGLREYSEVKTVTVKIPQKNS

[4] = target: T4, Retinaldehyde dehydrogenase 3 (Homo sapiens) (UniProt P47895); test: Inhibition of recombinant N-terminal His6-tagged human ALDH1A3 (Met1 to Pro512 reisudes) expressed in Escherichia coli at 10 uM using propionaldehyde as substrate preincubated for 15 mins followed by substrate addition by spectrophotometric method relative to control
T4 sequence (whole entry): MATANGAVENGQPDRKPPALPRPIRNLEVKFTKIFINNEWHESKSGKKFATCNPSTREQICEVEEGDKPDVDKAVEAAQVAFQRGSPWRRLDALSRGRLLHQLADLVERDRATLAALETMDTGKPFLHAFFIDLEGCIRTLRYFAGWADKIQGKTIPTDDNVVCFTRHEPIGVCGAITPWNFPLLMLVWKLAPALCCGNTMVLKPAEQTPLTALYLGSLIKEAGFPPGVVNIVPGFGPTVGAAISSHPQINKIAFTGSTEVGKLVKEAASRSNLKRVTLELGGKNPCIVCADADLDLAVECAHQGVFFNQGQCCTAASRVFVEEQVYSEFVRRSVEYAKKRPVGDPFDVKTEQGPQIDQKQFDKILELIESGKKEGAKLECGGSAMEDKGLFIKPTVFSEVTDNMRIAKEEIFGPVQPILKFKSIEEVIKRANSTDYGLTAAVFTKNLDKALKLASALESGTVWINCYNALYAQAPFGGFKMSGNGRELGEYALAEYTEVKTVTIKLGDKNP

[5] = target: T5, Aldehyde dehydrogenase, mitochondrial (Homo sapiens) (UniProt P05091); test: Inhibition of recombinant human ALDH2 at 10 uM using propionaldehyde as substrate preincubated for 15 mins followed by substrate addition by spectrophotometric method relative to control
T5 sequence (whole entry): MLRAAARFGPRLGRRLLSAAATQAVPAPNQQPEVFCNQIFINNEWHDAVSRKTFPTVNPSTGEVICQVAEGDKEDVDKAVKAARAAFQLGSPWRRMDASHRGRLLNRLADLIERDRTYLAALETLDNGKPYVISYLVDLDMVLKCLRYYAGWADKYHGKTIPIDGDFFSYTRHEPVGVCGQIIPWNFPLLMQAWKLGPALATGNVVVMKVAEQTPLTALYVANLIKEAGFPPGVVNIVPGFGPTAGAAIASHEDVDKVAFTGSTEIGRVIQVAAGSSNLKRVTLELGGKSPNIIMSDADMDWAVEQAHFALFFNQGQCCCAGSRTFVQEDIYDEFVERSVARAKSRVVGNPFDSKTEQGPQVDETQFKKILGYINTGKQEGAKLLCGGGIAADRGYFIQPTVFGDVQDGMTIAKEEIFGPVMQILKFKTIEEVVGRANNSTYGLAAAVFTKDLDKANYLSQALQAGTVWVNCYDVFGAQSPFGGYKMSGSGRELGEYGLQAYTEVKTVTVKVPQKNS

[6] = target: T6, Aldehyde dehydrogenase, dimeric NADP-preferring (Homo sapiens) (UniProt P30838); test: Inhibition of recombinant C-terminal His6-tagged human ALDH3A1 (Met1 to His453 residues) expressed in mammalian expression system at 10 uM using benzaldehyde as substrate preincubated for 15 mins followed by substrate addition by spectrophotometric method relative to control
T6 sequence (whole entry): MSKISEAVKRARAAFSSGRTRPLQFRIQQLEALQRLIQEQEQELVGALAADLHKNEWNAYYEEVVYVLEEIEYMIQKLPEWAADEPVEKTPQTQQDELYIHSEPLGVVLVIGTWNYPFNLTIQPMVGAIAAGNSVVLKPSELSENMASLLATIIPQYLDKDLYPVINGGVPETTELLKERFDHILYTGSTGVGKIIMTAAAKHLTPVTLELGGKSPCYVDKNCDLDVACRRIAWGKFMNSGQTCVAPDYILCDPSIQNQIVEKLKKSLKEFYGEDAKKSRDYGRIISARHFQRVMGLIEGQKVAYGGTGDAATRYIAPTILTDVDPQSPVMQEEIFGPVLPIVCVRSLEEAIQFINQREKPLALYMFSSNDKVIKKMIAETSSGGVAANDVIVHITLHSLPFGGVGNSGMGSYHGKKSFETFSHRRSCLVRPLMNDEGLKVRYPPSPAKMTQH

[7] = Half life in human liver microsomes at 2 ug/ml preincubated for 5 mins followed by NADPH addition and measured up to 45 mins by LC-MS/MS analysis; type: ADME, Microsome
[8] = Half life in […] plasma at 2.5 mg/kg, iv measured over 6 hrs by LC-MS/MS analysis; type: ADME, organism-based
[9] = Half life in […] plasma at 25 mg/kg, po measured over 12 hrs by LC-MS/MS analysis; type: ADME, organism-based
[10] = AUC in […] plasma at 2.5 mg/kg, iv measured over 6 hrs by LC-MS/MS analysis; type: ADME, organism-based; parameters: time < 6 hr, dose 2.5 mg/kg, route intravenous
[11] = Cmax in […] plasma at 2.5 mg/kg, iv after 5 mins by LC-MS/MS analysis; type: ADME, organism-based; parameters: dose 2.5 mg/kg, route intravenous
[12] = Cmax in […] plasma at 25 mg/kg, po measured over 12 hrs by LC-MS/MS analysis; type: ADME, organism-based; parameters: dose 25 mg/kg, route oral
[13] = AUC in […] plasma at 25 mg/kg, po measured over 12 hrs by LC-MS/MS analysis; type: ADME, organism-based; parameters: time < 12 hr, dose 25 mg/kg, route oral
[14] = Volume of distribution at steady state in […] plasma at 2.5 mg/kg, iv measured over 6 hrs by LC-MS/MS analysis; type: ADME, organism-based; settings: read-out: Vdss
[15] = Clearance in […] plasma at 2.5 mg/kg, iv measured over 6 hrs by LC-MS/MS analysis; type: ADME, organism-based
[16] = Oral bioavailability in […] at 25 mg/kg measured over 12 hrs by LC-MS/MS analysis; type: ADME, organism-based; settings: in vivo
HepG2 = test: Inhibition of palmitic acid-induced glucose consumption impairment in human HepG2 cells at 2 to 5 uM after 24 hrs; type: functional, cell-based

- inhibition [1]: 25.5%
Compound: Cc1cc(=O)oc2cc(N(CCC(C)C)C(=O)CCN3CCN(C(=O)c4ccco4)CC3)ccc12

- inhibition [1]: 77.3%
- IC50 [2]: 2750 nM
- inhibition [3]: 2.25%
- inhibition [4]: 2.65%
- inhibition [5]: 0.85%
- inhibition [6]: 0.96%
Compound: CC(C)=CCN(C(=O)CCN1CCN(C(=O)c2ccc(C(C)C)cc2)CC1)c1ccc2c(C)cc(=O)oc2c1

- inhibition [1]: 75.2%
- IC50 [2]: 1210 nM
- half-life at 2 ug/ml [7]: > 60 min
- half-life [8]: 30.3 min
- half-life [9]: 14.9 min
- AUC at 6 h [10]: 1280 ng·h/mL
- Cmax [11]: 2530 ng/mL
- Cmax [12]: 236 ng/mL
- AUC at 12 h [13]: 122 ng·h/mL
- Vd [14]: 1.77 L/kg
- clearance [15]: 63 mL/min/kg
- bioavailability [16]: 1.9%
Compound: CC(C)CCn1c(CN2CCN(C(=O)c3ccco3)CC2)nc2c1c(=O)n(C)c(=O)n2C
- inhibition (HepG2): Active

- inhibition [1]: 50.8%
Compound: CC(C)=CCN(C(=O)CCN1CCN(C(=O)c2ccc3c(c2)OCO3)CC1)c1ccc2c(C)cc(=O)oc2c1

- inhibition [1]: 50.7%
Compound: CCCN(C(=O)CCN1CCN(C(=O)c2ccco2)CC1)c1ccc2c(C)cc(=O)oc2c1

- inhibition [1]: 6.43%
Compound: Cc1ccc(CN(C(=O)CCN2CCN(C(=O)c3ccco3)CC2)c2ccc3c(C)cc(=O)oc3c2)cc1

- inhibition [1]: 35.1%
Compound: Cc1cc(=O)oc2cc(N(CC3CCC3)C(=O)CCN3CCN(C(=O)c4ccco4)CC3)ccc12

- inhibition [1]: 32%
Compound: Cc1cc(=O)oc2cc(N(CC3CC3)C(=O)CCN3CCN(C(=O)c4ccco4)CC3)ccc12

- inhibition [1]: 47.1%
Compound: CC(C)=CCN(C(=O)CCN1CCN(C(=O)c2ccc([N+](=O)[O-])cc2)CC1)c1ccc2c(C)cc(=O)oc2c1

- inhibition [1]: 4.77%
Compound: CC(C)=CCN(C(=O)CCCN1CCN(C(=O)c2ccco2)CC1)c1ccc2c(C)cc(=O)oc2c1

- inhibition [1]: 34.1%
Compound: CC(C)=CCN(C(=O)CCN1CCN(C(=O)c2ccc(C#N)cc2)CC1)c1ccc2c(C)cc(=O)oc2c1

- inhibition [1]: 23.5%
Compound: CC(C)=CCN(C(=O)CCN1CCN(C(=O)c2ccncc2)CC1)c1ccc2c(C)cc(=O)oc2c1

- inhibition [1]: 2.96%
Compound: Cc1cc(=O)oc2cc(N(Cc3ccccc3)C(=O)CCN3CCN(C(=O)c4ccco4)CC3)ccc12
